Experiments:
Sprague Dawley rats [1] = assay: Rat intraplantar injection model, von Frey test (Example 9); assay type: in vivo, Sprague Dawley rat; conditions: for von Frey withdrawal force threshold vs PBS-treated group: both time points post-injection
Description: (§1) Male Sprague Dawley rats (n=112) were allocated into 14 groups of 8/group. The study was run in 2 cycles, on consecutive days, 7 groups per cycle. Each cycle was composed of a Saline group, PBS group, which served as the control, and also treprostinil at a dose of 100 μg/mL or 1 μg/mL.
(§2) Animals were administered 0.1 mL of test material by subcutaneous injection into the paw pad (Intraplantar injection) at time zero. Animals were subsequently evaluated for their response to mechanical (von Frey filaments) and thermal stimuli, 15 and 90 minutes post-injection. The von Frey test was conducted prior to the thermal test, which followed immediately within minutes for each animal. In addition, clinical observation scoring of the animal's reaction to injection was conducted. FIG. 16 schematically illustrates the study design.
Mechanical pain sensitivity was tested using the von Frey test, which measures the withdrawal force threshold of the animals. The lower the force applied represents a greater sensitivity to the stimulus. The von Frey test was performed 15 and 90 minutes post-Test Item injection.

Sprague Dawley rats [2] = assay: Rat intraplantar injection model, von Frey test (Example 10); assay type: in vivo, Sprague Dawley rat; conditions: 1 μg/mL or 100 μg/mL; 15 and 90 minutes post-injection
Description: (§3) Male Sprague Dawley rats (n=56) were allocated into 7 groups of 8 animals per group. […] Each group was compared to the phosphate buffer (50-mM phosphate buffer with 50-mM sodium chloride at pH=7.4) treated group, which served as the control (Group 1).
as §2, with “zero. Then, the animals” for “zero. Animals”, “conducted.” for “conducted. FIG. 16 schematically illustrates the study design.”
Mechanical pain sensitivity was tested using the von Frey test, which measures the withdrawal force threshold of the animals. The lower the force applied represents a greater sensitivity to the stimulus. The von Frey test was performed 15 and 90 minutes post-test item injection.

Sprague Dawley rats [3] = assay: Rat intraplantar injection model, thermal pain sensitivity (Example 10); assay type: in vivo, Sprague Dawley rat
Description: as §3
as §2, with “zero. Then, the animals” for “zero. Animals”, “conducted.” for “conducted. FIG. 16 schematically illustrates the study design.”
(§4) The sensitivity of animals to a thermal pain stimulus was assessed immediately following the von Frey test. The time until withdrawal of the right-injected leg from a heat source was measured, and the lower (faster) the time of response represents a greater sensitivity to the stimulus. The test was performed 15 and 90 minutes post-test item injection.

Sprague Dawley rats [4] = assay: Rat intraplantar injection model, thermal pain sensitivity (Example 9); assay type: in vivo, Sprague Dawley rat; conditions: 100 μg/mL; both time points
Description: as §1, §2
as §4, with “post-Test Item” for “post-test item”

Sprague Dawley rats [5] = assay: Rat intraplantar injection model, clinical observation score (Example 9); assay type: in vivo, Sprague Dawley rat
Description: as §1, §2
A Clinical observation score was assigned by assessing for redness, swelling and paw placement.

Sprague Dawley rats [6] = assay: Clinical observations following subcutaneous injection (Example 12); assay type: in vivo, Sprague Dawley rat; conditions: 3, 10, or 30 mg/kg SC; some animals; approximately 4 hours
Description: (§5) Clinical observations were performed at approximately 6 hours prior to dosing, at the completion of dosing and at approximately 4 hours postdosing.

Sprague Dawley rats [7] = assay: Cardiovascular assessment by radiotelemetry following subcutaneous injection (Example 12); assay type: in vivo, Sprague Dawley rat
Description: as §5

Sprague Dawley rats [8] = assay: Rat intraplantar injection model, clinical observation score (Example 10); assay type: in vivo, Sprague Dawley rat; conditions: 1 μg/mL; both time-points; compared with similar dose of treprostinil
Description: as §3
as §2, with “zero. Then, the animals” for “zero. Animals”, “conducted.” for “conducted. FIG. 16 schematically illustrates the study design.”
A clinical observation score was assigned by assessing for redness, swelling and paw placement.

[9] = In vitro metabolic stability in liver microsomes; conditions: Rat
[10] = In vitro metabolic stability in liver microsomes; conditions: Monkey; +NADPH
in vitro = conditions: monkey, liver microsomes, pH 7.4
[11] = only the 1 μg/mL dose, both time points

For `CCCCC[C@H](O)CC[C@@H]1[C@H]2Cc3cccc(OCC(=O)NCC(=O)O)c3C[C@H]2C[C@H]1O` [Prodrug VII], the “von Frey withdrawal force threshold vs PBS-treated group” value (Sprague Dawley rats [1]; 1 μg/mL) was “no statistically significant difference”, the “von Frey withdrawal force threshold vs PBS-treated group” value (Sprague Dawley rats [1]; 100 μg/mL) was “statistically significant increased sensitivity” and the “sensitivity to mechanical stimulation vs similar dose of treprostinil” value (Sprague Dawley rats [1]; [11]) was “reduced sensitivity”. For the same molecule, the “von Frey withdrawal force threshold vs phosphate buffer group” value (Sprague Dawley rats [2]) was “reduced withdrawal force threshold”, the “sensitivity to thermal stimulation” value (Sprague Dawley rats [3]; 1 μg/mL, both time-points, compared with similar dose of treprostinil) was “reduced sensitivity to thermal stimulation” and the “thermal paw withdrawal time vs phosphate buffer treated group” value (Sprague Dawley rats [3]; 100 μg/mL, 15 minutes post-administration) was “statistically significantly faster paw withdrawal time”. The “thermal paw withdrawal time vs PBS group” value (Sprague Dawley rats [4]) was “trend toward reduction in the time of response”, the clinical score (Sprague Dawley rats [5]; 100 μg/mL (cycle 1), 15 min) was “non-zero” and the “clinical score vs PBS group” value (Sprague Dawley rats [5]; 100 μg/mL (cycle 1), 90 minutes post-injection) was “non-zero”. The “clinical score vs PBS group” value (Sprague Dawley rats [5]; 100 μg/mL, both time points) was “statistically significant increase in the clinical score”, the “clinical score vs similar dose of treprostinil” value (Sprague Dawley rats [5]; [11]) was “reduced clinical score” and the clinical observations (Sprague Dawley rats [6]) was “flushed body and/or extremities, piloerection, hypoactivity, reddened forelimb(s) and/or hindlimb(s), wet yellow material on the urogenital area and ventral trunk, and dried red material around nose”. For the same molecule, the “diastolic blood pressure change” value (Sprague Dawley rats [7]; 0.1 mg/kg SC (for Prodrug VII)) was “No meaningful change”, the “mean blood pressure change” value (Sprague Dawley rats [7]; 0.1 mg/kg SC (for Prodrug VII)) was “No meaningful change” and the “systolic blood pressure change” value (Sprague Dawley rats [7]; 0.1 mg/kg SC (for Prodrug VII)) was “No meaningful change”. The body temperature change (Sprague Dawley rats [7]; 1 mg/kg SC) was “No significant changes”, the “diastolic blood pressure change” value (Sprague Dawley rats [7]; 3 mg/kg SC) was “Marginally lower” and the “diastolic blood pressure lowering persisted through” value (Sprague Dawley rats [7]; 3 mg/kg SC) was 80 min. The “diastolic blood pressure, time of nadir” value (Sprague Dawley rats [7]; 3 mg/kg SC) was 50 min, the “hypothermic response persisted through” value (Sprague Dawley rats [7]; 3 mg/kg SC) was 4 h and the “mean blood pressure change” value (Sprague Dawley rats [7]; 3 mg/kg SC) was “Marginally lower”. The “mean blood pressure, time of nadir” value (Sprague Dawley rats [7]; 3 mg/kg SC) was 50 min, the “systolic blood pressure change” value (Sprague Dawley rats [7]; 3 mg/kg SC) was “Marginally lower” and the “systolic blood pressure, time of nadir” value (Sprague Dawley rats [7]; 3 mg/kg SC) was 50 min. For the same molecule, the “diastolic hypotension persisting through” value (Sprague Dawley rats [7]; 10 mg/kg SC) was “approximately 4 hours”, the “mean blood pressure hypotension persisting through” value (Sprague Dawley rats [7]; 10 mg/kg SC) was “approximately 4 hours” and the pulse pressure change (Sprague Dawley rats [7]; 10 mg/kg SC) was “Marginally higher”. The “systolic hypotension persisting through” value (Sprague Dawley rats [7]; 10 mg/kg SC) was “approximately 4 hours”, the “systolic hypotension persisting through” value (Sprague Dawley rats [7]; 30 mg/kg SC) was about 6 h and the “time without recovery of body temperature” value (Sprague Dawley rats [7]; 30 mg/kg SC) was over 24 h. The body temperature change (Sprague Dawley rats [7]; 3, 10, and 30 mg/kg SC) was “Significantly lower”, the “diastolic blood pressure change” value (Sprague Dawley rats [7]; 10 and 30 mg/kg SC) was “Significantly lower” and the “diastolic blood pressure, earliest time point of lowering” value (Sprague Dawley rats [7]; 10 and 30 mg/kg SC) was 20 min. The “diastolic blood pressure, time of nadir” value (Sprague Dawley rats [7]; 10 and 30 mg/kg SC) was 40 min, the “mean blood pressure change” value (Sprague Dawley rats [7]; 10 and 30 mg/kg SC) was “Significantly lower” and the “mean blood pressure, time of nadir” value (Sprague Dawley rats [7]; 10 and 30 mg/kg SC) was 40 min. The “systolic blood pressure change” value (Sprague Dawley rats [7]; 10 and 30 mg/kg SC) was “Significantly lower”, the “systolic blood pressure, earliest time point of lowering” value (Sprague Dawley rats [7]; 10 and 30 mg/kg SC) was 20 min and the “systolic blood pressure, time of nadir” value (Sprague Dawley rats [7]; 10 and 30 mg/kg SC) was 40 min. For the same molecule, the “dose resulting in significantly lower body temperature” value (Sprague Dawley rats [7]; single SC injection) was at least 3 mg/kg, the “dose resulting in significantly lower systolic, diastolic, mean arterial blood pressure” value (Sprague Dawley rats [7]; single SC injection) was at least 3 mg/kg and the heart rate change (Sprague Dawley rats [7]; single SC injection, all doses) was “Higher heart rates”. The clinical score (Sprague Dawley rats [8]) was “lower values of clinical score”.

`CCOc1ccc2ccc(=O)oc2c1` [Prodrug 7-EC, 7-ethoxycoumarin] showed a Half-life ([9]; +NADPH) of 0.0982 h, a Half-life ([9]; −NADPH) of over 6 h and a Half-life [10] of 2.00 min. For the same molecule, the half-life at 500 nM (in vitro) was over 6 h.

Source: patent US11672775B2, “Treprostinil prodrugs” (United Therapeutics Corporation, priority 2016, dated 2023)
